Legend:
Settings in all cases: 72 h
[1] = tested on: K-562
Method in brief: (§1)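 In 384-well plates holding acoustically pre-printed compounds at five tenfold doses from 1 to 10,000 nM, in duplicate, fifteen myeloid leukaemia cell lines were grown in RPMI 1640 for 72 h at 37 °C with 5% CO2. Luminescent ATP viability was scaled between vehicle and a positive control at 10 µM. The IC50 was then taken from log-logistic dose–response fits with four parameters.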

[2] = tested on: HEL
Method in brief: as §1

[3] = tested on: LAMA-84
Method in brief: as §1

[4] = tested on: BV-173
Method in brief: as §1

[5] = tested on: MV4-11
Method in brief: as §1

[6] = tested on: KU-812
Method in brief: as §1

[7] = tested on: KCL-22
Method in brief: as §1

[8] = tested on: Mono-Mac-6
Method in brief: as §1

[9] = tested on: KG-1
Method in brief: as §1

[10] = tested on: ML-2
Method in brief: as §1

[11] = tested on: THP-1
Method in brief: as §1

[12] = tested on: HL-60
Method in brief: as §1

[13] = tested on: MOLM-13
Method in brief: as §1

[14] = tested on: NOMO-1
Method in brief: as §1

[15] = tested on: SHI-1
Method in brief: as §1

[16] = tested on: K-562; test: cell viability (% survival relative to DMSO control, bortezomib = 0%); higher = less cytotoxic
Method in brief: (§2)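 Fifteen myeloid leukaemia cell lines (10 AML, 5 CML) were seeded at a density titrated to the linear growth range. They went into 384-well plates with compounds pre-printed at 1, 10, 100, 1000 or 10000 nM in duplicate. After 72 h at 37 °C with 5% CO2, viability was read by CellTiter-Glo luminescence. Values are percent survival, with vehicle set to 100% and a 10 µM positive control to 0%, averaged over the duplicates.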

[17] = tested on: HEL; test: as above
Method in brief: as §2

[18] = tested on: LAMA-84; test: as above
Method in brief: as §2

[19] = tested on: BV-173; test: as above
Method in brief: as §2

[20] = tested on: MV4-11; test: as above
Method in brief: as §2

[21] = tested on: KU-812; test: as above
Method in brief: as §2

[22] = tested on: KCL-22; test: as above
Method in brief: as §2

[23] = tested on: Mono-Mac-6; test: as above
Method in brief: as §2

[24] = tested on: KG-1; test: as above
Method in brief: as §2

[25] = tested on: ML-2; test: as above
Method in brief: as §2

[26] = tested on: THP-1; test: as above
Method in brief: as §2

[27] = tested on: HL-60; test: as above
Method in brief: as §2

[28] = tested on: MOLM-13; test: as above
Method in brief: as §2

[29] = tested on: NOMO-1; test: as above
Method in brief: as §2

[30] = tested on: SHI-1; test: as above
Method in brief: as §2

C=CC(=O)c1ccc(O)cc1 [4-Acryloylphenol]
Settings	IC50 (cell viability) [µM]
[1]	> 10
[2]	6.6
[3]	> 10
[4]	3.1
[5]	4.22
[6]	7.96
[7]	6.68
[8]	> 10
[9]	> 10
[10]	9.62
[11]	> 10
[12]	> 10
[13]	> 10
[14]	3.44
[15]	> 10

cell viability [%]
Settings	1 nM	10 nM	100 nM	1000 nM	10000 nM
[16]	86.2	85.5	101	114	66.7
[17]	80	90.5	94.7	115	26.6
[18]	86.7	91.9	99.9	105	56.7
[19]	82.2	86.6	104	93	-1.1
[20]	91	89.9	94.3	137	-1.55
[21]	82.9	97.5	96.4	97.7	36.1
[22]	86.1	89.5	102	124	28.2
[23]	86.3	99.1	111	103	54.6
[24]	83.7	92.7	99.8	114	86.2
[25]	90	90.7	105	125	46.9
[26]	89.8	88.1	102	99.4	72.8
[27]	90	80.9	97.5	105	94.6
[28]	81.7	79.4	83.1	124	78.7
[29]	88	92.6	107	102	2.21
[30]	99.7	92.7	102	114	103

Cc1[nH]nc(C(F)(F)F)c1Cc1sc2c(c1C(=O)N1C[C@](C)(O)CO1)c(=O)n(C)c(=O)n2C(C)C [AZD3965]
Settings	IC50 (cell viability) [µM]
[1]	0.00627
[2]	> 10
[3]	> 10
[4]	0.0362
[5]	> 10
[6]	> 10
[7]	> 10
[8]	> 10
[9]	> 10
[10]	> 10
[11]	> 10
[12]	> 10
[13]	> 10
[14]	> 10
[15]	> 10

cell viability [%]
Settings	1 nM	10 nM	100 nM	1000 nM	10000 nM
[16]	101	42	33.8	20	21.9
[17]	84.2	108	116	111	109
[18]	89.5	120	113	95.1	102
[19]	91.4	103	4.97	0.26	0.551
[20]	89	106	138	94.7	81.6
[21]	91.7	120	112	89.8	98.9
[22]	89.7	112	125	102	108
[23]	108	105	111	84.9	98.3
[24]	114	118	124	132	127
[25]	106	116	114	108	101
[26]	107	104	113	99.5	102
[27]	79.9	95.6	111	113	115
[28]	113	120	120	105	93.5
[29]	95.3	112	114	101	105
[30]	103	101	109	101	96.7

O=c1cc(-c2ccccc2)oc2c1ccc1ccccc12 [Alpha-Naphtoflavone]
Settings	IC50 (cell viability) [µM]
[1]	> 10
[2]	> 10
[3]	> 10
[4]	> 10
[5]	> 10
[6]	> 10
[7]	> 10
[8]	> 10
[9]	> 10
[10]	> 10
[11]	> 10
[12]	> 10
[13]	> 10
[14]	> 10
[15]	> 10

cell viability [%]
Settings	1 nM	10 nM	100 nM	1000 nM	10000 nM
[16]	95.8	101	109	90.2	108
[17]	96.1	95.6	102	96.4	102
[18]	103	95.9	103	93.5	94.4
[19]	105	92.1	105	111	108
[20]	106	109	107	89.6	97.1
[21]	98.8	99.3	96.3	96	89.9
[22]	107	98.1	97.7	85.8	84.8
[23]	92.7	90.3	93.6	111	113
[24]	114	89.4	95.1	90.9	74.7
[25]	101	102	93.4	83.4	82.3
[26]	98.3	99.6	102	102	101
[27]	118	83.8	95.6	104	103
[28]	115	93.5	96.2	80.9	90.1
[29]	99.7	94.3	108	95.6	95.2
[30]	113	99.2	97.7	95.8	96.8

Source: the supplement of paper PMC8671470
